Assay results reported in patent US9890147B2 (BAYER PHARMA AKTIENGESELLSCHAFT, priority 2012, dated 2018).

Legend:
BRD4 (BD1) = target: T1, BRD4 (BD1) (Homo sapiens, UniProt O60885); test: Binding assay BRD4/acetylated peptide H4 (TR-FRET protein-protein interaction assay)
T1 construct: with relatively long constructs also being possible, preferably amino acids 44-168; made in house; host or cells: E. coli
Outline: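 His6-BRD4 BD1 (aa 67-152, E. coli), usually 10 nM, with biotinylated tetra-acetylated H4 peptide in HEPES pH 7.5 buffer; 11 compound concentrations 0.1 nM–20 μM in duplicate, 10 min preincubation, 1 h at 22 °C then ≥3 h at 4 °C. TR-FRET 665/620 ratio; IC50 by 4-parameter fit.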

MOLM-13 cells = test: Cell proliferation assay (alamarBlue), MOLM-13; type: cell-based; conditions: Homo sapiens, 96 hours incubation, inhibition of cell proliferation
Experimental: In accordance with the invention, the capability of the substances to inhibit cell proliferation was determined Cell viability was determined using the alamarBlue® reagent (Invitrogen) in a Victor X3 Multilabel Reader (Perkin Elmer). The excitation wavelength was 530 nm and the emission wavelenth […].
The MOLM-13 cells (DSMZ, ACC 554) were sown at a concentration of 4000 cells/well in 100 μl growth medium (RPMI1640, 10% FCS) on 96-well microtitre plates.
After an overnight incubation at 37° C., the fluorescence values (CI values) were determined. The plates were then treated with various substance dilutions (1E-5 M, 3E-6 M, 1E-6M, 3E-7 M, 1E-7 M, 3E-8 M, 1E-8 M) and incubated at 37° C. for 72 (MV4-11-, LOX-IMVI cells), 96 (MOLM-13-, B16F10-, MDA-MB-431-, Caov-3 cells), 120 (MOLP-8-, KMS-12-PE cells) or 168 (LAPC-4 cells) hours. The fluorescence values (CO values) were then determined. For the data analysis, the CI values were subtracted from the CO values and the results were compared between cells treated with different dilutions of the substance or with buffer solution only. These were used to calculate the IC 50 values (substance concentration required for 50% inhibition of cell proliferation).

Compound | IC50 (BRD4 (BD1)) [nM] | IC50 (MOLM-13 cells) [nM]
CNC(=O)N1N=C(c2ccc(N3CCN(CC(F)F)CC3)cc2)c2cc(OC)c(OC)cc2CC1C (racemic) [Example 193, (±)-1-{4-[4-(2,2-difluoroethyl)piperazin-1-yl]phenyl}-7,8-dimethoxy-N,4-dimethyl-4,5-dihydro-3H-2,3-benzodiazepine-3-carboxamide] | 90 | 110
CNC(=O)N1N=C(c2ccc(N3CCN(C)CC3)cc2)c2cc(NC(C)=O)ccc2CC1C (racemic) [Example 172, (±)-8-Acetamido-N,4-dimethyl-1-[4-(4-methylpiperazin-1-yl)phenyl]-4,5-dihydro-3H-2,3-benzodiazepine-3-carboxamide] | 130 | 1910
CNC(=O)N1N=C(c2ccc(N3CCS(=O)(=O)CC3)cc2)c2cc(Cl)c(OC(F)(F)F)cc2CC1C (racemic) [Example 210, (±)-8-chloro-1-[4-(1,1-dioxidothiomorpholin-4-yl)phenyl]-N,4-dimethyl-7-(trifluoromethoxy)-4,5-dihydro-3H-2,3-benzodiazepine-3-carboxamide] | 250 | 170
CNC(=O)N1N=C(c2ccc(N3CCN(CCO)CC3)cc2)c2cc(OC)c(OC)cc2CC1C (racemic) [Example 178, (±)-1-{4-[4-(2-hydroxyethyl)piperazin-1-yl]phenyl}-7,8-dimethoxy-N,4-dimethyl-4,5-dihydro-3H-2,3-benzodiazepine-3-carboxamide] | 70 | 180
CC[C@H]1Cc2cc(OC)c(OC)cc2C(c2ccc(N3CCN(S(C)(=O)=O)CC3)cc2)=NN1C(=O)NC [Example 203.1, (4S)-4-ethyl-7,8-dimethoxy-N-methyl-1-{4-[4-(methylsulphonyl)piperazin-1-yl]phenyl}-4,5-dihydro-3H-2,3-benzodiazepine-3-carboxamide] | 260 | 1270
CNC(=O)N1N=C(c2ccc(N3CCC(OC)CC3)cc2)c2cc(OC)c(OC)cc2C[C@@H]1C [Example 179.2, (4S)-7,8-dimethoxy-1-[4-(4-methoxypiperidin-1-yl)phenyl]-N,4-dimethyl-4,5-dihydro-3H-2,3-benzodiazepine-3-carboxamide] | 40 | 80
CNC(=O)N1N=C(c2cccc(N3CC(F)(F)C3)c2)c2cc(OC)c(OC)cc2CC1C (racemic) [Example 141, (±)-1-[3-(3,3-difluoroazetidin-1-yl)phenyl]-7,8-dimethoxy-N,4-dimethyl-4,5-dihydro-3H-2,3-benzodiazepine-3-carboxamide] | 70 | 550
COc1cc2c(cc1OC)C(c1ccc(-c3c(C)noc3C)cc1)=NN(C(C)=O)C(C)C2 (racemic) [Example 246, (±)-1-{1-[4-(3,5-dimethyl-1,2-oxazol-4-yl)phenyl]-7,8-dimethoxy-4-methyl-4,5-dihydro-3H-2,3-benzodiazepin-3-yl}ethanone] | 330 | 2060
CNC(=O)N1N=C(c2ccc(-n3ccc(-c4ccc(F)cc4)n3)cc2)c2cc(OC)c(OC)cc2CC1C (racemic) [Example 150, (±)-1-{4-[3-(4-fluorophenyl)-1H-pyrazol-1-yl]phenyl}-7,8-dimethoxy-N,4-dimethyl-4,5-dihydro-3H-2,3-benzodiazepine-3-carboxamide] | 80 | 480
CC[C@H]1Cc2cc(OC)c(OC)cc2C(c2ccc(N3CCNCC3)cc2)=NN1C(=O)NC [Example 202.1, (4S)-4-ethyl-7,8-dimethoxy-N-methyl-1-[4-(piperazin-1-yl)phenyl]-4,5-dihydro-3H-2,3-benzodiazepine-3-carboxamide] | 640 | 580
CNC(=O)N1N=C(c2ccc(-c3cc(O)cc(F)c3)cc2)c2cc(OC)c(OC)cc2CC1C (racemic) [Example 119, (±)-1-(3′-fluoro-5′-hydroxybiphenyl-4-yl)-7,8-dimethoxy-N,4-dimethyl-4,5-diliydro-3H-2,3-benzodiazepine-3-carboxamide] | 90 | 410
CNC(=O)N1N=C(c2ccc(-c3ccc(C(F)(F)F)cc3)cc2)c2cc(OC)c(OC)cc2CC1C (racemic) [Example 86, (±)-7,8-dimethoxy-N,4-dimethyl-1-[4′-(trifluoromethyl)biphenyl-4-yl]-4,5-dihydro-3H-2,3-benzodiazepine-3-carboxamide] | 390 | 1430
CNC(=O)N1N=C(c2ccc(N3CC(C)OCC3=O)cc2)c2cc(OC)c(OC)cc2CC1C (racemic) [Example 41, (±)-7,8-dimethoxy-N,4-dimethyl-1-[4-(2-methyl-5-oxomorpholin-4-yl)phenyl]-4,5-dihydro-3H-2,3-benzodiazepine-3-carboxamide] | 260 | 1350
CNC(=O)N1N=C(c2ccc(N3CCC(C)(NC(=O)OC(C)(C)C)CC3)cc2)c2cc(OC)c(OC)cc2CC1C (racemic) [Example 191, (±)-tert-butyl (1-{4-[7,8-dimethoxy-4-methyl-3-(methylcarbamoyl)-4,5-dihydro-3H-2,3-benzodiazepin-1-yl]phenyl}-4-methylpiperidin-4-yl)carbamate] | 70 | 170
CNC(=O)N1N=C(c2ccc(-c3nc(C)no3)cc2)c2cc(OC)c(OC)cc2CC1C (racemic) [Example 248, (±)-7,8-Dimethoxy-N,4-dimethyl-1-[4-(3-methyl-1,2,4-oxadiazol-5-yl)phenyl]-4,5-dihydro-3H-2,3-benzodiazepine-3-carboxamide] | 190 | 140
CNC(=O)N1N=C(c2ccc(Cl)cc2)c2cc(OCCCN3CCN(C)CC3)ccc2CC1C (racemic) [Example 164, (±)-1-(4-chlorophenyl)-N,4-dimethyl-8-[3-(4-methylpiperazin-1-yl)propoxy]-4,5-dihydro-3H-2,3-benzodiazepine-3-carboxamide] | 60 | 580
CNC(=O)N1N=C(c2ccc(-c3nnc(C)o3)cc2)c2cc(OC)c(OC)cc2CC1C (racemic) [Example 247, (±)-7,8-Dimethoxy-N,4-dimethyl-1-[4-(5-methyl-1,3,4-oxadiazol-2-yl)phenyl]-4,5-dihydro-3H-2,3-benzodiazepine-3-carboxamide] | 190 | 570
CNC(=O)N1N=C(c2ccc(-c3c(C)nn(C)c3C)cc2)c2cc(OC(F)(F)F)ccc2C[C@@H]1C [Example 249.1, (4S)-N,4-dimethyl-8-(trifluoromethoxy)-1-[4-(1,3,5-trimethyl-1H-pyrazol-4-yl)phenyl]-4,5-dihydro-3H-2,3-benzodiazepine-3-carboxamide] | 20 | 60
CNC(=O)N1N=C(c2ccc(-c3ccncc3F)cc2)c2cc(OC)c(OC)cc2CC1C (racemic) [Example 84, (±)-1-[4-(3-fluoropyridin-4-yl)phenyl]-7,8-dimethoxy-N,4-dimethyl-4,5-dihydro-3H-2,3-benzodiazepine-3-carboxamide] | 60 | 340
CNC(=O)N1N=C(c2ccc(-c3cnn(C)c3)cc2)c2cc(OC)ccc2C[C@@H]1C [Example 21, (4S)-8-methoxy-N,4-dimethyl-1-[4-(1-methyl-1H-pyrazol-4-yl)phenyl]-4,5-dihydro-3H-2,3-benzodiazepine-3-carboxamide] | 130 | 560
CNC(=O)N1N=C(c2cccc(-c3ccnn3C)c2)c2cc(OC)c(OC)cc2CC1C (racemic) [Example 55, (±)-7,8-dimethoxy-N,4-dimethyl-1-[3-(1-methyl-1H-pyrazol-5-yl)phenyl]-4,5-dihydro-3H-2,3-benzodiazepine-3-carboxamide] | 120 | 900
CNC(=O)N1N=C(c2ccc(-c3ccccc3C)cc2)c2cc(OC)c(OC)cc2CC1C (racemic) [Example 72, (±)-7,8-dimethoxy-N,4-dimethyl-1-(2′-methylbiphenyl-4-yl)-4,5-dihydro-3H-2,3-benzodiazepine-3-carboxamide] | 210 | 660
CNC(=O)N1N=C(c2ccc(N3CCCN(C)CC3=O)cc2)c2cc(OC)c(OC)cc2CC1C (racemic) [Example 37, (±)-7,8-dimethoxy-N,4-dimethyl-1-[4-(4-methyl-2-oxo-1,4-diazepan-1-yl)phenyl]-4,5-dihydro-3H-2,3-benzodiazepine-3-carboxamide] | 120 | 1130
CNC(=O)N1N=C(c2ccc(N3CCN(C)CC3)cc2)c2cc(OC)c(OC(F)(F)F)cc2CC1C (racemic) [Example 219, (±)-8-methoxy-N,4-dimethyl-1-[4-(4-methylpiperazin-1-yl)phenyl]-7-(trifluoromethoxy)-4,5-dihydro-3H-2,3-benzodiazepine-3-carboxamide] | 370 | 570
CNC(=O)N1N=C(c2ccc(-c3c(C)noc3C)cc2)c2cc(OC)c(C#N)cc2CC1C (racemic) [Example 170, (±)-7-Cyano-1-[4-(3,5-dimethylisoxazol-4-yl)phenyl]-8-methoxy-N,4-dimethyl-4,5-dihydro-3H-2,3-benzodiazepine-3-carboxamide] | 70 | 520
